In patent publication US20240090547A1, “SWEETENER COMPOSITIONS COMPRISING MOGROSIDES AND USES THEREOF” (Firmenich Incorporated, priority 2021, published 2024):

Columns and labels:
Assay type in all cases: in vivo, human
panel of volunteers [1] = assay: Sensory testing for vanilla milk; details: average normalized score, 10-point scale; for Licorice Aftertaste / Lingering Sweetness / Mouth Coating / Overall Off-Taste: aftertaste; for Astringence / Delayed Sweetness / Fattiness / Sourness / Sweetness / Bitterness / Global Flavor Intensity: in-mouth
Description: (§1) A panel of volunteers evaluated siamenoside I for in-mouth attributes (sweetness, delayed sweetness, sourness, bitterness, global flavor intensity, thickness/body, and astringence) and aftertaste (AT) attribtues (lingering sweetness, overall off-taste intensity, licorice off-tast, bitterness off-taste, and mouth coating) on a 10-point scale. Two replicate sessions were conducted, with a 20 minute break between sessions. There was a 90 second delay between samples within a session. Panelists evaluated all samples in a first session and evaluated the samples again a second time in a second session. Control samples of Rebaudioside M (Reb M) were evaluated during all sessions as a control. Mogroside V was also evaluated and sensory data for mogroside V is provided.
(§2) Data analysis was performed using 2-way analysis of variance (ANOVA) with interaction using Tukey's HSD test. The data was normalized for each attribute according to average scores for Reb M.
A panel of volunteers evaluated vanilla milk for in-mouth attributes and aftertaste attributes according to the methods described in Example 1 above.
The average normalized in-mouth attributes for each sample of vanilla milk was evaluated and the results are provided below.
The average normalized aftertaste attributes for each sample of vanilla milk containing siamenoside I was evaluated and the results are provided below.

panel of volunteers [2] = assay: Sensory testing for lemon-lime carbonated soft drink; set-up: key to Sweetness / Delayed Sweetness / Bitterness / Lingering Sweetness / Overall Off-Taste / Licorice Aftertaste / Bitterness Aftertaste: 10-point scale; scores normalized to average Reb M scores; details: 600 ppm (mogroside V 600 mg [sic]), average normalized score, 10-point scale; for Bitterness Aftertaste / Licorice Aftertaste / Lingering Sweetness / Overall Off-Taste: aftertaste; for Bitterness / Delayed Sweetness / Global Flavor Intensity / Sweetness: in-mouth
Description: as §1, §2
A panel of volunteers evaluated the siamenoside I-containing lemon-lime carbonated soft drink for in-mouth attributes and aftertaste attributes according to the methods described in Example 1 above.
The average normalized in-mouth attributes for a sample of lemon-lime carbonated soft drink having […] was evaluated below.
The average normalized aftertaste attributes for a sample of lemon-lime carbonated soft drink having siamenoside I was evaluated below.

panel of volunteers [3] = assay: Sensory testing for sparkling orange beverage; details: sparkling orange beverage, 250 ppm (mogroside V 250 mg [sic]), average normalized score, 10-point scale; for Licorice Aftertaste / Lingering Sweetness / Mouth Coating / Overall Off-Taste: aftertaste; for Delayed Sweetness / Sweetness: in-mouth
Description: as §1, §2
A panel of volunteers evaluated a sparkling orange beverage containing siamenodie I for in-mouth attributes and aftertaste attributes according to the methods described in Example 1 above.
The average normalized in-mouth attributes for a sample of sparkling orange beverage containing siamenoside I was evaluated and the results are provided below.
The average normalized aftertaste attributes for a sample of sparkling orange beverage containing siamenoside I was evaluated and the results are provided below.

panel of volunteers [4] = assay: Sensory testing for apple drink (panel, in-mouth and aftertaste attributes); set-up: key to Sweetness / Delayed Sweetness / Bitterness / Lingering Sweetness / Overall Off-Taste / Licorice Aftertaste / Bitterness Aftertaste / Mouth Coating: 10-point scale; normalized per attribute to average Reb M scores; details: 10-point scale; for Bitterness Aftertaste / Licorice Aftertaste / Lingering Sweetness / Overall Off-Taste / Mouth Coating: aftertaste; for Bitterness / Delayed Sweetness / Global Flavor Intensity / Sweetness / Thickness/Body: in-mouth, average normalized score
Description: as §1, §2
The average normalized in-mouth attributes for each sample of apple drink containing siamenoside I was evaluated below.
The average sweetness for each sample of apple drink containing siamenoside I was evaluated below.

[5] = 200 ppm (mogroside V 200 mg [sic])
[6] = 400 ppm (mogroside V 400 mg [sic])
[7] = 250 ppm (mogroside V 250 mg [sic])
[8] = 500 ppm (mogroside V 500 mg [sic])

C=C1C[C@@]23CC[C@H]4[C@@](C)(CCC[C@@]4(C)C(=O)O[C@@H]4O[C@H](CO)[C@@H](O)[C@H](O[C@@H]5O[C@H](CO)[C@@H](O)[C@H](O)[C@H]5O)[C@H]4O[C@@H]4O[C@H](CO)[C@@H](O)[C@H](O)[C@H]4O)[C@@H]2CC[C@]1(O[C@@H]1O[C@H](CO)[C@@H](O)[C@H](O[C@@H]2O[C@H](CO)[C@@H](O)[C@H](O)[C@H]2O)[C@H]1O[C@@H]1O[C@H](CO)[C@@H](O)[C@H](O)[C@H]1O)C3 [Reb M, Rebaudioside M]
Licorice Aftertaste (panel of volunteers [1]; [5]): 0.8 | Lingering Sweetness (panel of volunteers [1]; [5]): 2.6 | Mouth Coating (panel of volunteers [1]; [5]): 3.1 | Overall Off-Taste (panel of volunteers [1]; [5]): 1.8 | Astringence (panel of volunteers [1]; [5]): 0.6 | Delayed Sweetness (panel of volunteers [1]; [5]): 1.7 | Fattiness (panel of volunteers [1]; [5]): 3.3 | Sourness (panel of volunteers [1]; [5]): 0.7 | Sweetness (panel of volunteers [1]; [5]): 4.9 | Licorice Aftertaste (panel of volunteers [1]; [6]): 1.3 | Lingering Sweetness (panel of volunteers [1]; [6]): 3.8 | Mouth Coating (panel of volunteers [1]; [6]): 0.7 | Overall Off-Taste (panel of volunteers [1]; [6]): 2.1 | Astringence (panel of volunteers [1]; [6]): 0.6 | Bitterness (panel of volunteers [1]; [6]): 0.8 | Delayed Sweetness (panel of volunteers [1]; [6]): 2.2 | Fattiness (panel of volunteers [1]; [6]): 3.8 | Global Flavor Intensity (panel of volunteers [1]; [6]): 4.6 | Sourness (panel of volunteers [1]; [6]): 0.7 | Sweetness (panel of volunteers [1]; [6]): 6.6 | Bitterness Aftertaste (panel of volunteers [2]): 1.4 | Licorice Aftertaste (panel of volunteers [2]): 2.5 | Lingering Sweetness (panel of volunteers [2]): 4.3 | Overall Off-Taste (panel of volunteers [2]): 3.6 | Bitterness (panel of volunteers [2]): 1.9 | Delayed Sweetness (panel of volunteers [2]): 3.3 | Global Flavor Intensity (panel of volunteers [2]): 4.8 | Sweetness (panel of volunteers [2]): 6.0 | Licorice Aftertaste (panel of volunteers [3]): 2.2 | Lingering Sweetness (panel of volunteers [3]): 3.9 | Mouth Coating (panel of volunteers [3]): 2.5 | Overall Off-Taste (panel of volunteers [3]): 3.3 | Delayed Sweetness (panel of volunteers [3]): 3.3 | Sweetness (panel of volunteers [3]): 5.8 | Bitterness Aftertaste (panel of volunteers [4]; [7]): 1.1 | Licorice Aftertaste (panel of volunteers [4]; [7]): 2.0 | Lingering Sweetness (panel of volunteers [4]; [7]): 3.7 | Overall Off-Taste (panel of volunteers [4]; [7]): 2.9 | Bitterness (panel of volunteers [4]; [7]): 1.4 | Delayed Sweetness (panel of volunteers [4]; [7]): 2.5 | Global Flavor Intensity (panel of volunteers [4]; [7]): 4.0 | Sweetness (panel of volunteers [4]; [7]): 4.9 | Thickness/Body (panel of volunteers [4]; [7]): 1.5 | Licorice Aftertaste (panel of volunteers [4]; [8]): 2.2 | Lingering Sweetness (panel of volunteers [4]; [8]): 4.4 | Mouth Coating (panel of volunteers [4]; [8]): 2.2 | Overall Off-Taste (panel of volunteers [4]; [8]): 3.1 | Bitterness (panel of volunteers [4]; [8]): 1.3 | Delayed Sweetness (panel of volunteers [4]; [8]): 3.0 | Global Flavor Intensity (panel of volunteers [4]; [8]): 4.7 | Sweetness (panel of volunteers [4]; [8]): 6.1 | Thickness/Body (panel of volunteers [4]; [8]): 1.9

C[C@H](CC[C@@H](O[C@@H]1O[C@H](CO[C@@H]2O[C@H](CO)[C@@H](O)[C@H](O)[C@H]2O)[C@@H](O)[C@H](O)[C@H]1O[C@@H]1O[C@H](CO)[C@@H](O)[C@H](O)[C@H]1O)C(C)(C)O)[C@H]1CC[C@@]2(C)[C@@H]3CC=C4[C@@H](CC[C@H](O[C@@H]5O[C@H](CO[C@@H]6O[C@H](CO)[C@@H](O)[C@H](O)[C@H]6O)[C@@H](O)[C@H](O)[C@H]5O)C4(C)C)[C@]3(C)[C@H](O)C[C@]12C [mogroside V]
Licorice Aftertaste (panel of volunteers [1]; [5]): 0.8 | Lingering Sweetness (panel of volunteers [1]; [5]): 2.5 | Mouth Coating (panel of volunteers [1]; [5]): 2.9 | Overall Off-Taste (panel of volunteers [1]; [5]): 1.6 | Astringence (panel of volunteers [1]; [5]): 0.5 | Delayed Sweetness (panel of volunteers [1]; [5]): 1.9 | Fattiness (panel of volunteers [1]; [5]): 3.2 | Sourness (panel of volunteers [1]; [5]): 1.0 | Sweetness (panel of volunteers [1]; [5]): 5.0 | Licorice Aftertaste (panel of volunteers [1]; [6]): 1.1 | Lingering Sweetness (panel of volunteers [1]; [6]): 3.5 | Mouth Coating (panel of volunteers [1]; [6]): 0.9 | Overall Off-Taste (panel of volunteers [1]; [6]): 2.2 | Astringence (panel of volunteers [1]; [6]): 0.3 | Bitterness (panel of volunteers [1]; [6]): 1.2 | Delayed Sweetness (panel of volunteers [1]; [6]): 2.0 | Fattiness (panel of volunteers [1]; [6]): 3.5 | Global Flavor Intensity (panel of volunteers [1]; [6]): 4.2 | Sourness (panel of volunteers [1]; [6]): 0.9 | Sweetness (panel of volunteers [1]; [6]): 6.3 | Bitterness Aftertaste (panel of volunteers [2]): 1.6 | Licorice Aftertaste (panel of volunteers [2]): 2.3 | Lingering Sweetness (panel of volunteers [2]): 3.6 | Overall Off-Taste (panel of volunteers [2]): 3.7 | Bitterness (panel of volunteers [2]): 2.0 | Delayed Sweetness (panel of volunteers [2]): 3.4 | Global Flavor Intensity (panel of volunteers [2]): 3.9 | Sweetness (panel of volunteers [2]): 5.0 | Licorice Aftertaste (panel of volunteers [3]): 2.2 | Lingering Sweetness (panel of volunteers [3]): 3.6 | Mouth Coating (panel of volunteers [3]): 2.8 | Overall Off-Taste (panel of volunteers [3]): 2.9 | Delayed Sweetness (panel of volunteers [3]): 4.2 | Sweetness (panel of volunteers [3]): 5.1 | Bitterness Aftertaste (panel of volunteers [4]; [7]): 1.3 | Licorice Aftertaste (panel of volunteers [4]; [7]): 2.3 | Lingering Sweetness (panel of volunteers [4]; [7]): 2.5 | Overall Off-Taste (panel of volunteers [4]; [7]): 3.4 | Bitterness (panel of volunteers [4]; [7]): 1.6 | Delayed Sweetness (panel of volunteers [4]; [7]): 2.5 | Global Flavor Intensity (panel of volunteers [4]; [7]): 3.0 | Sweetness (panel of volunteers [4]; [7]): 3.4 | Thickness/Body (panel of volunteers [4]; [7]): 1.3 | Licorice Aftertaste (panel of volunteers [4]; [8]): 2.0 | Lingering Sweetness (panel of volunteers [4]; [8]): 3.8 | Mouth Coating (panel of volunteers [4]; [8]): 2.1 | Overall Off-Taste (panel of volunteers [4]; [8]): 2.9 | Bitterness (panel of volunteers [4]; [8]): 1.3 | Delayed Sweetness (panel of volunteers [4]; [8]): 3.1 | Global Flavor Intensity (panel of volunteers [4]; [8]): 4.1 | Sweetness (panel of volunteers [4]; [8]): 5.2 | Thickness/Body (panel of volunteers [4]; [8]): 1.6
